# Results as given in ChEMBL document CHEMBL4049403, “Oligo-aspartic acid conjugates with benzo[c][2,6]naphthyridine-8-carboxylic acid scaffold as picomolar inhibitors of CK2” (Bioorg Med Chem, 2017).
# Where a SMILES comes first, the peptide text is derived from it. The star is where a group is joined. X1 = O=C(O)c1ccc2c(c1)nc(OCCCCCCCCC(=O)*)c1ccncc12
# Legend:
# [1] = species on record: Homo sapiens; assay: Inhibition of human CK2 assessed as residual activity at 1 uM in presence of 33P-ATP by filter-binding assay relative to control
# [2] = target: Casein kinase II subunit alpha (Homo sapiens, UniProt P68400); assay: Inhibition of CK2alpha (unknown origin) (1 to 335 residues) using 5-TAMRA-RADDSDDDDD as substrate after 30 mins by fluorescence imaging method
# [3] = target: Mitogen-activated protein kinase kinase kinase 9 (Homo sapiens) (UniProt P80192); assay: Inhibition of human MLK1 assessed as residual activity at 1 uM in presence of 33P-ATP by filter-binding assay relative to control
# [4] = target: Death-associated protein kinase 1 (Homo sapiens) (UniProt P53355); assay: Inhibition of human DAPK1 assessed as residual activity at 1 uM in presence of 33P-ATP by filter-binding assay relative to control
# [5] = target: Serine/threonine-protein kinase 26 (Homo sapiens) (UniProt Q9P289); assay: Inhibition of human MST4 assessed as residual activity at 1 uM in presence of [33P]ATP by filter binding assay relative to control
# [6] = target: Serine/threonine-protein kinase MARK2 (Homo sapiens) (UniProt Q7KZI7); assay: Inhibition of human MARK2 assessed as residual activity at 1 uM in presence of [33P]ATP by filter binding assay relative to control
# [7] = target: NUAK family SNF1-like kinase 1 (Homo sapiens) (UniProt O60285); assay: Inhibition of human NUAK1 assessed as residual activity at 1 uM in presence of [33P]ATP by filter binding assay relative to control
# [8] = target: Mitogen-activated protein kinase kinase kinase 7 (Homo sapiens) (UniProt O43318); assay: Inhibition of human TAK1 assessed as residual activity at 1 uM in presence of [33P]ATP by filter binding assay relative to control
# [9] = target: Serine/threonine-protein kinase 33 (Homo sapiens) (UniProt Q9BYT3); assay: Inhibition of human STK33 assessed as residual activity at 1 uM in presence of [33P]ATP by filter binding assay relative to control
# [10] = target: Tyrosine-protein kinase SYK (Homo sapiens) (UniProt P43405); assay: Inhibition of human SYK assessed as residual activity at 1 uM in presence of [33P]ATP by filter binding assay relative to control
# [11] = target: MAP/microtubule affinity-regulating kinase 3 (Homo sapiens) (UniProt P27448); assay: Inhibition of human MARK3 assessed as residual activity at 1 uM in presence of [33P]ATP by filter binding assay relative to control
# [12] = target: Serine/threonine-protein kinase pim-3 (Homo sapiens) (UniProt Q86V86); assay: Inhibition of human PIM3 assessed as residual activity at 1 uM in presence of [33P]ATP by filter binding assay relative to control
# [13] = target: Dual specificity mitogen-activated protein kinase kinase 1 (Homo sapiens) (UniProt Q02750); assay: Inhibition of human MKK1 assessed as residual activity at 1 uM in presence of [33P]ATP by filter binding assay relative to control
# [14] = target: Serine/threonine-protein kinase N2 (Homo sapiens) (UniProt Q16513); assay: Inhibition of human PRK2 assessed as residual activity at 1 uM in presence of [33P]ATP by filter binding assay relative to control
# [15] = target: Serine/threonine-protein kinase SIK3 (Homo sapiens) (UniProt Q9Y2K2); assay: Inhibition of human SIK3 assessed as residual activity at 1 uM in presence of [33P]ATP by filter binding assay relative to control
# [16] = target: Serine/threonine-protein kinase Nek6 (Homo sapiens) (UniProt Q9HC98); assay: Inhibition of human NEK6 assessed as residual activity at 1 uM in presence of [33P]ATP by filter binding assay relative to control
# [17] = target: Serine/threonine-protein kinase 3 (Homo sapiens) (UniProt Q13188); assay: Inhibition of human MST2 assessed as residual activity at 1 uM in presence of [33P]ATP by filter binding assay relative to control
# [18] = target: Maternal embryonic leucine zipper kinase (Homo sapiens) (UniProt Q14680); assay: Inhibition of human MELK assessed as residual activity at 1 uM in presence of [33P]ATP by filter binding assay relative to control
# [19] = target: Dual specificity testis-specific protein kinase 1 (Homo sapiens) (UniProt Q15569); assay: Inhibition of human TESK1 assessed as residual activity at 1 uM in presence of [33P]ATP by filter binding assay relative to control
# [20] = species on record: Homo sapiens; assay: Inhibition of human PHK assessed as residual activity at 1 uM in presence of [33P]ATP by filter binding assay relative to control
# [21] = target: Tau-tubulin kinase 1 (Homo sapiens) (UniProt Q5TCY1); assay: Inhibition of human TTBK1 assessed as residual activity at 1 uM in presence of [33P]ATP by filter binding assay relative to control
# [22] = target: Serine/threonine-protein kinase PAK 2 (Homo sapiens) (UniProt Q13177); assay: Inhibition of human PAK2 assessed as residual activity at 1 uM in presence of [33P]ATP by filter binding assay relative to control
# [23] = target: Aurora kinase A (Homo sapiens) (UniProt O14965); assay: Inhibition of human Aurora A assessed as residual activity at 1 uM in presence of [33P]ATP by filter binding assay relative to control
# [24] = target: RAC-beta serine/threonine-protein kinase (Homo sapiens) (UniProt P31751); assay: Inhibition of human PKBb assessed as residual activity at 1 uM in presence of [33P]ATP by filter binding assay relative to control
# [25] = target: Ephrin type-A receptor 4 (Homo sapiens) (UniProt P54764); assay: Inhibition of human EPH-A4 assessed as residual activity at 1 uM in presence of [33P]ATP by filter binding assay relative to control
# [26] = target: Mitogen-activated protein kinase 11 (Homo sapiens) (UniProt Q15759); assay: Inhibition of human P38b MAPK assessed as residual activity at 1 uM in presence of [33P]ATP by filter binding assay relative to control
# [27] = target: Serine/threonine-protein kinase OSR1 (Homo sapiens) (UniProt O95747); assay: Inhibition of human OSR1 assessed as residual activity at 1 uM in presence of [33P]ATP by filter binding assay relative to control
# [28] = target: Discoidin domain-containing receptor 2 (Homo sapiens) (UniProt Q16832); assay: Inhibition of human DDR2 assessed as residual activity at 1 uM in presence of [33P]ATP by filter binding assay relative to control
# [29] = target: Serine/threonine-protein kinase 16 (Homo sapiens) (UniProt O75716); assay: Inhibition of human MPSK1 assessed as residual activity at 1 uM in presence of [33P]ATP by filter binding assay relative to control
# [30] = tested on: Serine/threonine-protein kinase MAP4K2 (Homo sapiens); assay: Inhibition of human GCK assessed as residual activity at 1 uM in presence of 33P-ATP by filter-binding assay relative to control
# Serine/threonine-protein kinase Nek6 (Homo sapiens), sequence (Q9HC98 whole entry): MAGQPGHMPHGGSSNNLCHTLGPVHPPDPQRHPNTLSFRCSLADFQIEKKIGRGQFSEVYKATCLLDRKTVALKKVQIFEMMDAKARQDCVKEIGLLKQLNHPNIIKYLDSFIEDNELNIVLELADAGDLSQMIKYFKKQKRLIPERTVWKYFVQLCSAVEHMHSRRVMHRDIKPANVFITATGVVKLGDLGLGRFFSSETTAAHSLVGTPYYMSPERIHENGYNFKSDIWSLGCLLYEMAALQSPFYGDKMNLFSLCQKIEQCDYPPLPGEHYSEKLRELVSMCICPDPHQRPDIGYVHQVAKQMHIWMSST
# Serine/threonine-protein kinase MARK2 (Homo sapiens), sequence (Q7KZI7 whole entry): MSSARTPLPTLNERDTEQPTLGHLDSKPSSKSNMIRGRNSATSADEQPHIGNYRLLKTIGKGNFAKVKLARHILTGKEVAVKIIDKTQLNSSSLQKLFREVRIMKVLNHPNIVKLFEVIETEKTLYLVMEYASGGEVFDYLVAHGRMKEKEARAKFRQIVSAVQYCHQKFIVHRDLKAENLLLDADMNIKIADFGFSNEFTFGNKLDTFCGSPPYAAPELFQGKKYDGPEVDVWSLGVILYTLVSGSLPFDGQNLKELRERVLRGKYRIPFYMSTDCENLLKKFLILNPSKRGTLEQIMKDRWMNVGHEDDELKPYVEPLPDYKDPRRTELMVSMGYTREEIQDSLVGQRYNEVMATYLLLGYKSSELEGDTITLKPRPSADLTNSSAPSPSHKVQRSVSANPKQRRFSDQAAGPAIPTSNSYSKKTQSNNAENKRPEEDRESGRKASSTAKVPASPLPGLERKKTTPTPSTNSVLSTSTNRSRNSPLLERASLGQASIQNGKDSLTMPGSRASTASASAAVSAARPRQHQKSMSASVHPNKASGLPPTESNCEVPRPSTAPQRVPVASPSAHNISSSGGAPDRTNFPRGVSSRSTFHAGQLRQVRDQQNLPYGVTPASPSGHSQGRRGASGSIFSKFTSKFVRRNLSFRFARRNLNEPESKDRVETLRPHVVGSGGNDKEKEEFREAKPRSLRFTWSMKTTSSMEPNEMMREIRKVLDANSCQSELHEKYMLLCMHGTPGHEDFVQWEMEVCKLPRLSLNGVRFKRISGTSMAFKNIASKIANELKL
# Serine/threonine-protein kinase 3 (Homo sapiens), sequence (Q13188 whole entry): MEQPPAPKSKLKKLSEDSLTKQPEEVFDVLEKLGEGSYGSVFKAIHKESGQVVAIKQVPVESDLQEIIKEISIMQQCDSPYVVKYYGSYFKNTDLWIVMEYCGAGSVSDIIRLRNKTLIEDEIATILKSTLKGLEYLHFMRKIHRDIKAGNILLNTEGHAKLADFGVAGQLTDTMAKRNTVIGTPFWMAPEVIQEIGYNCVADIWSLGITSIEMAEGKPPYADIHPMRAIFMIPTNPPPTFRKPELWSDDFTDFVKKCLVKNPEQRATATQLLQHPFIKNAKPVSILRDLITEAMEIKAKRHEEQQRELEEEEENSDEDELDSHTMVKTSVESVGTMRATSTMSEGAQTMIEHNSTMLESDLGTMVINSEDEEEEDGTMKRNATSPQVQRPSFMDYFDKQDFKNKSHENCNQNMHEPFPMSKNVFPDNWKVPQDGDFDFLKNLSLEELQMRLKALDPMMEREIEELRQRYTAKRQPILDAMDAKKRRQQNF
# Mitogen-activated protein kinase kinase kinase 7 (Homo sapiens), sequence (O43318 whole entry): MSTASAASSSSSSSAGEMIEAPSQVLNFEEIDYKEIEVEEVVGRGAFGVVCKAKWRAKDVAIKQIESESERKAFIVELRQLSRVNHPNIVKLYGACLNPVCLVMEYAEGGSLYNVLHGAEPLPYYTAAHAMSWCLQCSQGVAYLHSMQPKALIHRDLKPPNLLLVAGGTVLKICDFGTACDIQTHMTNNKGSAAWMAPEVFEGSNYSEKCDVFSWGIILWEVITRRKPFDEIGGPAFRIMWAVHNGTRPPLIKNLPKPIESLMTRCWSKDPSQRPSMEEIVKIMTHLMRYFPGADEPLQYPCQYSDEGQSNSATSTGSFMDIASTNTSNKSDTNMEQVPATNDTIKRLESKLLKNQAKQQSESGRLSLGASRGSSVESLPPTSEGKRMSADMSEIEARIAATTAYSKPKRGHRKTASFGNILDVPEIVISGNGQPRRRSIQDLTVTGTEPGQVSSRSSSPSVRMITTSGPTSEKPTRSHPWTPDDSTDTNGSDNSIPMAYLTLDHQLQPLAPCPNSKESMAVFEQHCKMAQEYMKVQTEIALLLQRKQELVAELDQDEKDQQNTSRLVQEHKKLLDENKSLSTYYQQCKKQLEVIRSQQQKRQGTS
# Tau-tubulin kinase 1 (Homo sapiens), sequence (Q5TCY1 whole entry): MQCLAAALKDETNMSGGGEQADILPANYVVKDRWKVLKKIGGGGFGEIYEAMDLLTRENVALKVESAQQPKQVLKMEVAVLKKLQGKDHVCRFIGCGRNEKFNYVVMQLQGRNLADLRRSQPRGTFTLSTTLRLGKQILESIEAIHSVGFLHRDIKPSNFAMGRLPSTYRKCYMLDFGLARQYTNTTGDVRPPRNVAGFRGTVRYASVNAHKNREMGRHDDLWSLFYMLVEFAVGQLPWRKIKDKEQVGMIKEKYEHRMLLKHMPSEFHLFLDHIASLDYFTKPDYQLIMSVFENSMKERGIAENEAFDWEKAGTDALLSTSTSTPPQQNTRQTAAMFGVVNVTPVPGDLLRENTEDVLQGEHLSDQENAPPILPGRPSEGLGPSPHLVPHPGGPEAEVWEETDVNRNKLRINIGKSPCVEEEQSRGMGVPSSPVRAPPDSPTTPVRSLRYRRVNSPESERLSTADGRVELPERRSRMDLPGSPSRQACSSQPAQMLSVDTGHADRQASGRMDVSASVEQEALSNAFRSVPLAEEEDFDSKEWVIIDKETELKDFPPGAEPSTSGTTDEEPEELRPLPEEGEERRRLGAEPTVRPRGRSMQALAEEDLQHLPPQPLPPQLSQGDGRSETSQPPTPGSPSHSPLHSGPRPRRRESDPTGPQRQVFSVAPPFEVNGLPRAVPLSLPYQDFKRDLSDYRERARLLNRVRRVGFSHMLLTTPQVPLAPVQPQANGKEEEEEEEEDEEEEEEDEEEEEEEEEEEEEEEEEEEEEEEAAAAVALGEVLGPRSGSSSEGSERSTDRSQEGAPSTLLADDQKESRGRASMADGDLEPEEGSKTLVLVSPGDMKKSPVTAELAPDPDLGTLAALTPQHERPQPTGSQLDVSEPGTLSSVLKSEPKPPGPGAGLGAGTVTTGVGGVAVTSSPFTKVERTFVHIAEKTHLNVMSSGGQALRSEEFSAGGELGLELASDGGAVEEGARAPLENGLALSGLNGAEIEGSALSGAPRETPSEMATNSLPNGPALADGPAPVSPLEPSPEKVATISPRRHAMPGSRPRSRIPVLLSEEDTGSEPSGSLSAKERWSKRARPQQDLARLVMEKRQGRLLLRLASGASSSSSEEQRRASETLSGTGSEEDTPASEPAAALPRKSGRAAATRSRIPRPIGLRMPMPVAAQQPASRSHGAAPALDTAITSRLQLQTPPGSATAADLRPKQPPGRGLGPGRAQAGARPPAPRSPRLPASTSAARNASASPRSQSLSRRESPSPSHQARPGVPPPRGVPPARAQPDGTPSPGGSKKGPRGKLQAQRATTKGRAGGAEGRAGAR
# Discoidin domain-containing receptor 2 (Homo sapiens), sequence (Q16832 whole entry, the tested form may be a part): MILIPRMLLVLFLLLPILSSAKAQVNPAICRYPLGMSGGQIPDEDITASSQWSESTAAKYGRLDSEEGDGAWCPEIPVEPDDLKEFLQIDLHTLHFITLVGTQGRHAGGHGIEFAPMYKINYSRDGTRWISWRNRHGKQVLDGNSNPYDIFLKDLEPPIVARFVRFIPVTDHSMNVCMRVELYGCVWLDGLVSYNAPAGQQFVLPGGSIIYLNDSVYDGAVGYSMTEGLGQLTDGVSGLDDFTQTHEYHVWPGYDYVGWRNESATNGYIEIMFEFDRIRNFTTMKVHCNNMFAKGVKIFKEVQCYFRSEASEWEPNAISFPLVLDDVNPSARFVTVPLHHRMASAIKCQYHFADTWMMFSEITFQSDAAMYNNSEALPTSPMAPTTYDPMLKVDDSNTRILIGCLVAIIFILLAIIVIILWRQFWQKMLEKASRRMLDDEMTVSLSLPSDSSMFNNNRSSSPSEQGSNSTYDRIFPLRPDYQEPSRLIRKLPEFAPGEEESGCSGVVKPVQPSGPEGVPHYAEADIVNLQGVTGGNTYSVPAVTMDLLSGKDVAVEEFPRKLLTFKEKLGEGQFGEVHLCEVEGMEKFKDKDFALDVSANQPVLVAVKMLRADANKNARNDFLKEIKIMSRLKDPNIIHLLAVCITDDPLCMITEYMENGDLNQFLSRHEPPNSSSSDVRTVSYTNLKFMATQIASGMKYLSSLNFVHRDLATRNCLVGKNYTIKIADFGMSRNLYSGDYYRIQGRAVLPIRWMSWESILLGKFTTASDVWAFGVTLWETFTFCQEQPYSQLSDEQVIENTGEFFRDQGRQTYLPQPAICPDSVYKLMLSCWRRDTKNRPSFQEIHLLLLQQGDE
# Dual specificity mitogen-activated protein kinase kinase 1 (Homo sapiens), sequence (Q02750 whole entry): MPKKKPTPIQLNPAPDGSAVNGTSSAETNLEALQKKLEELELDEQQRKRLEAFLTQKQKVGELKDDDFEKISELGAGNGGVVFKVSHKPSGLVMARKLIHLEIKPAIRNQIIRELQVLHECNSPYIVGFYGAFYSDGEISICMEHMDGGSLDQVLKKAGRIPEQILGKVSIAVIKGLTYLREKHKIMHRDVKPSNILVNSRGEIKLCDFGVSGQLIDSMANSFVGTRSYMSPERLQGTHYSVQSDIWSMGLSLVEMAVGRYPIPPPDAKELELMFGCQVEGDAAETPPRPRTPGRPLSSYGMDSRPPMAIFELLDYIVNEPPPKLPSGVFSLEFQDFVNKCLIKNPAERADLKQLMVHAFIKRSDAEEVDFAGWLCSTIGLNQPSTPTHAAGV
compound,measurement,setting,value
NCCCC[C@H](NC(=O)[C@H](CC(=O)O)NC(=O)[C@H](CC(=O)O)NC(=O)[C@H](CC(=O)O)NC(=O)[C@H](CC(=O)O)NC(=O)[C@H](CC(=O)O)NC(=O)[C@H](CC(=O)O)NC(=O)CCCCCCCCOc1nc2cc(C(=O)O)ccc2c2cnccc12)C(=O)O (X1-DDDDDDK-OH),Activity,[1],1%
same,IC50,[2],4 nM
same,Activity,[3],42%
same,Activity,[4],50%
same,Activity,[5],67%
same,Activity,[6],75%
same,Activity,[7],75%
same,Activity,[8],80%
same,Activity,[9],83%
same,Activity,[10],84%
same,Activity,[11],84%
same,Activity,[12],84%
same,Activity,[13],86%
same,Activity,[14],90%
same,Activity,[15],90%
same,Activity,[16],90%
same,Activity,[17],92%
same,Activity,[18],93%
same,Activity,[19],94%
same,Activity,[20],97%
same,Activity,[21],97%
same,Activity,[22],97%
same,Activity,[23],97%
same,Activity,[24],100%
same,Activity,[25],104%
same,Activity,[26],107%
same,Activity,[27],111%
same,Activity,[28],117%
same,Activity,[29],118%
same,Activity,[30],15%
